From patent publication US11384099B2, “Pyrazolopyridinone compounds” (Janssen Pharmaceutica NV, priority 2017, dated 2022) come the findings set out here.

A word on the IC50: it is the concentration that gives 50% inhibition.

Assay [1] has as its target T1, human FGFR3 wild type enzyme (cytoplasmic domain) (Homo sapiens, UniProt P22607).
T1 construct: human FGFR3 wild type enzyme (cytoplasmic domain, from Cama Biosciences); purchased Carna Biosciences
The assay is described as follows: FGFR3 wild type mobility shift assay (enzymatic assay, Caliper). Format: biochemical. Particulars: 75 μM ATP, 50 minutes at 30° C. Here is the method:
FGFR3 Wild Type Mobility Shift Assay (Enzymatic Assay)
In a final reaction volume of 25 μL, 0.04 ng/μL human FGFR3 wild type enzyme (cytoplasmic domain, from Cama Biosciences) was incubated with 75 μM ATP, 1 μM FL-peptide 30 substrate and 250 nL of testing compound (1% DMSO final) in assay buffer (100 mM HEPES pH 7.4, 10 mM MgCl2, 0.003% Brij35, 1 mM DTT). After incubation for 50 minutes at 30° C. the reaction was stopped with 10 μL of 0.5M EDTA pH 8.0, and then L of reaction mixture was transferred to reading plate and measured on Caliper EZ reader II.

The target of assay [2] is T2, human FGFR3 V555M enzyme (cytoplasmic domain carrying V555M mutation) (Homo sapiens, UniProt P22607, V555M).
T2 construct: cytoplasmic domain carrying V555M mutation, from Carna Biosciences; purchased Carna Biosciences
T2 sequence (P22607 397-806 V555M limits assumed): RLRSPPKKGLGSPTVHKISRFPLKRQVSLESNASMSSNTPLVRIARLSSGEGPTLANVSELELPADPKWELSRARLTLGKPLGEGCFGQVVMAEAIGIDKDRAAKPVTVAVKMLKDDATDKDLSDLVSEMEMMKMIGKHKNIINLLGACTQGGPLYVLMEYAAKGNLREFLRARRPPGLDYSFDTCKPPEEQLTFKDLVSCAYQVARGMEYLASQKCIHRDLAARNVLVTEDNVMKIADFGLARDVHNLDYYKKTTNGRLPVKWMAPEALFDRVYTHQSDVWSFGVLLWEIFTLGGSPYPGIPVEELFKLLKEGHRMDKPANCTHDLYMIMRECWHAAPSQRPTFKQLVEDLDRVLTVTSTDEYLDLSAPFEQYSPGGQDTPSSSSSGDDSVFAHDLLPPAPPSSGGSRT
The assay is described as follows: FGFR3 V555M mobility shift assay (enzymatic assay, Caliper). Format: biochemical. Particulars: 30 μM ATP, 45 minutes at 30° C. Here is the method:
FGFR3 V555M Mobility Shift Assay (Enzymatic Assay)
In a final reaction volume of 25 μL, 0.04 ng/μL human FGFR3 V555M enzyme (cytoplasmic domain carrying V555M mutation, from Carna Biosciences) was incubated with 30 μM ATP, 1 μM FL-peptide 30 substrate and 250 nL of testing compound (1% DMSO final) in assay buffer (100 mM HEPES pH 7.4, 10 mM MgCl2, 0.003% Brij35, 1 mM DTT). After incubation for 45 minutes at 30° C. the reaction was stopped with 10 μL of 0.5M EDTA pH 8.0, and then L of reaction mixture was transferred to reading plate and measured on Caliper EZ reader II.

Assay [3] relates to NIH/3T3 cells transfected with control vector (MOCK). Kind of assay: NIH/3T3 mock cell proliferation assay (CTG, counter assay). The class given is cell-based. Particulars: Mus musculus, NIH3T3; 72-hr incubation, CellTiter Glo; counter assay for general toxicity. Here is the method:
NIH/3T3 Mock Cell Proliferation Assay
In day 1, 90 μL of cell suspension (NIH/3T3 cells transfected with the same control vector as in the above two proliferation assays) (total 30,000 cells per well in growth medium (DMEM containing 1% Glutamax, 10% FBS and 1% Pen/Strep)) was seeded in a 96-well plate and then incubated overnight at 37° C. and 5% CO2. In day 2, 10 μL of growth medium containing 10-fold stock solution of testing compound was added into cell cultures (9 dose points with 3× serial dilution, starting with 30 μM, 0.3% DMSO final). After 72-hr incubation at 37° C. and 5% CO2, in day 5 a volume of 50 μL CellTiter Glo (CTG) reagent was added into cell-containing 96-well plate and the plate was incubated at room temperature for 10 minutes before RLUs (relative light unit) were measured on a microplate reader with luminescence detection module. The RLU value was normalized to survival % and concentration-response curve was plotted using Prism to calculate IC50 (M), pIC50 (−log IC50) and HillSlope value.
A general note: ATP-based viability assays read luminescence as a measure of living cells.

T1 sequence (P22607 397-806 limits assumed): as the sequence (P22607 397-806 V555M limits assumed) above, with M159V counted along it

Regarding `COCC(Nc1c(-c2nc3ccc(OC)cc3[nH]2)c(=O)[nH]c2cn(C)nc12)c1ncccn1` (single isomer, unassigned) [Compound 12, (S*)-7-((2-methoxy-1-(pyrimidin-2-yl)ethyl)amino)-6-(6-methoxy-1H-benzo[d]imidazol-2-yl)-2-methyl-2H-pyrazolo[4,3-b]pyridin-5 (4H)-one], the IC50 worked out at 18 nM in assay [1], 4.25 nM in assay [2] and 1500 nM in assay [3].

Consider `COc1cc2[nH]c(-c3c(N[C@@H](C)c4ncccn4)c4nn(C)cc4[nH]c3=O)nc2cn1` [Compound 30, (S)-6-(6-methoxy-1H-imidazo[4,5-c]pyridin-2-yl)-2-methyl-7-((1-(pyrimidin-2-yl)ethyl)-amino)-2H-pyrazolo[4,3-b]pyridin-5 (4H)-one], for which the IC50 was 1.13 nM in assay [1], 0.414 nM in assay [2] and 1200 nM in assay [3].

As for `CCC(Nc1c(-c2nc3cc(OC)c(OC)cc3[nH]2)c(=O)[nH]c2cn(CC)nc12)c1ncccn1` (single isomer, unassigned) [Compound 44, (S*)-6-(5,6-dimethoxy-1H-benzo[d]imidazol-2-yl)-2-ethyl-7-((1-(pyrimidin-2-yl)propyl)-amino)-2H-pyrazolo[4,3-b]pyridin-5 (4H)-one], the 50% inhibitory concentration (IC50) is 3.1 nM in assay [1], 1.17 nM in assay [2] and 2300 nM in assay [3].

Regarding `COc1cc(OC)c2nc(-c3c(N[C@@H](C)c4ncccn4)c4nn(C)cc4[nH]c3=O)[nH]c2c1` [Compound 29, (S)-6-(4,6-Dimethoxy-1H-benzo[d]imidazol-2-yl)-2-methyl-7-((1-(pyrimidin-2-yl)ethyl)-amino)-2H-pyrazolo[4,3-b]pyridin-5 (4H)-one], the IC50 in assay [1] stood at 1.89 nM; in assay [2], 0.517 nM; in assay [3] it was 809 nM.

For `CCC(Nc1c(-c2nc3ccc(OC)cc3[nH]2)c(=O)[nH]c2cn(C)nc12)c1ncccn1` (single isomer, unassigned) [Compound 17, (R*)-6-(6-Methoxy-1H-benzo[d]imidazol-2-yl)-2-methyl-7-((1-(pyrimidin-2-yl)propyl)-amino)-2H-pyrazolo[4,3-b]pyridin-5 (4H)-one], the IC50 worked out at 4.87 nM in assay [1], 0.957 nM in assay [2] and 959 nM in assay [3].

Turning to `CCn1cc2[nH]c(=O)c(-c3nc4c(F)c(OC)c(OC)cc4[nH]3)c(N[C@@H](C)c3ncccn3)c2n1` [Compound 41, (S)-2-ethyl-6-(4-fluoro-5,6-dimethoxy-1H-benzo[d]imidazol-2-yl)-7-((1-(pyrimidin-2-yl)-ethyl)amino)-2H-pyrazolo[4,3-b]pyridin-5 (4H)-one], the figures for the IC50 in assay [1], in assay [2] and in assay [3] were 3.8 nM, 1.11 nM and 2280 nM, respectively.

Regarding `COc1cc(F)c2nc(-c3c(N[C@@H](C)c4ncccn4)c4nn(C)cc4[nH]c3=O)[nH]c2c1` [Compound 2, (S)-6-(4-fluoro-6-methoxy-1H-benzo[d]imidazol-2-yl)-2-methyl-7-((1-(pyrimidin-2-yl)-ethyl)amino)-2H-pyrazolo[4,3-b]pyridin-5 (4H)-one], the results for the IC50 in assay [1], in assay [2] and in assay [3] were 2.88 nM, 0.791 nM and 2380 nM, respectively.

Turning to `CC[C@H](Nc1c(-c2nc3cnc(N(C)C)cc3[nH]2)c(=O)[nH]c2cn(C)nc12)c1ncccn1` [Compound 22, (S)-6-(6-(dimethylamino)-1H-imidazo[4,5-c]pyridin-2-yl)-2-methyl-7-((1-(pyrimidin-2-yl)propyl)amino)-2H-pyrazolo[4,3-b]pyridin-5 (4H)-one], the IC50 in assay [1] was determined as 3.62 nM; in assay [2], 0.743 nM; in assay [3], 1250 nM.

For `CCOc1ccc2nc(-c3c(N[C@@H](C)c4ncccn4)c4nn(CC)cc4[nH]c3=O)[nH]c2c1` [Compound 50, (S)-6-(6-ethoxy-1H-benzo[d]imidazol-2-yl)-2-ethyl-7-((1-(pyrimidin-2-yl)ethyl)amino)-2,4-dihydro-5H-pyrazolo[4,3-b]pyridin-5-one], the IC50 in assay [1] stood at 2.96 nM; in assay [2], 0.576 nM; in assay [3] it was 1100 nM.

Consider `CCOc1cc2[nH]c(-c3c(N[C@@H](C)c4ncccn4)c4nn(CC)cc4[nH]c3=O)nc2cc1OC` [Compound 8, (S)-6-(6-ethoxy-5-methoxy-1H-benzo[d]imidazol-2-yl)-2-ethyl-7-((1-(pyrimidin-2-yl)-ethyl)amino)-2H-pyrazolo[4,3-b]pyridin-5 (4H)-one], for which the IC50 in assay [1] came to 1.15 nM; in assay [2], 0.376 nM; in assay [3], 766 nM.

As for `CCOc1cc2nc(-c3c(N[C@@H](C)c4ncccn4)c4nn(C)cc4[nH]c3=O)[nH]c2cc1OCC` [Compound 53, (S)-6-(5,6-diethoxy-1H-benzo[d]imidazol-2-yl)-2-methyl-7-((1-(pyrimidin-2-yl)ethyl)-amino)-2,4-dihydro-5H-pyrazolo[4,3-b]pyridin-5-one], the IC50 came to 0.554 nM in assay [1], 0.298 nM in assay [2] and 535 nM in assay [3].

Regarding `COc1cc2[nH]c(-c3c(NC(c4ncccn4)C(C)C)c4nn(C)cc4[nH]c3=O)nc2cn1` (single isomer, unassigned) [Compound 18, (S*)-6-(6-methoxy-1H-imidazo[4,5-c]pyridin-2-yl)-2-methyl-7-((2-methyl-1-(pyrimidin-2-yl)propyl)amino)-2H-pyrazolo[4,3-b]pyridin-5 (4H)-one], the IC50 in assay [1] was found to be 8.51 nM; in assay [2], 1.69 nM; in assay [3] it was 3120 nM.

For `COc1cnc2nc(-c3c(NC(c4ncccn4)C(C)C)c4nn(C)cc4[nH]c3=O)[nH]c2c1` (single isomer, unassigned) [Compound 40, (S*)-6-(6-methoxy-1H-imidazo[4,5-b]pyridin-2-yl)-2-methyl-7-((2-methyl-1-(pyrimidin-2-yl)propyl)amino)-2,4-dihydro-5H-pyrazolo[4,3-b]pyridin-5-one], the IC50 stood at 5.93 nM in assay [1], 0.743 nM in assay [2] and 1740 nM in assay [3].

For `COc1cnc2nc(-c3c(N[C@@H](C)c4ncccn4)c4nn(C)cc4[nH]c3=O)[nH]c2c1` [Compound 3, (S)-6-(6-methoxy-1H-imidazo[4,5-b]pyridin-2-yl)-2-methyl-7-((1-(pyrimidin-2-yl)-ethyl)amino)-2H-pyrazolo[4,3-b]pyridin-5 (4H)-one], the values for the IC50 in assay [1], in assay [2] and in assay [3] were 1.67 nM, 0.361 nM and 776 nM, respectively.

For the molecule `CCn1cc2[nH]c(=O)c(-c3nc4cc(OC)c(OC)cc4[nH]3)c(N[C@@H](C)c3ncccn3)c2n1` [Compound 6, (S)-6-(5,6-Dimethoxy-1H-benzo[d]imidazol-2-yl)-2-ethyl-7-((1-(pyrimidin-2-yl)ethyl)-amino)-2H-pyrazolo[4,3-b]pyridin-5 (4H)-one], the IC50 in assay [1] was determined as 1.83 nM; in assay [2], 0.673 nM; in assay [3], 800 nM.
